The text below walks through data of US12036228B2, “Treatment of seizure disorders” (Shackelford Pharma Inc., priority 2022, dated 2024).

Holding throughout (format): in vivo
Test [1] has as its system seizures in human patient. The test can be described thus: Example 8 pediatric patient with Lennox-Gastaut. The note with it: THC 8 mg BID (16 mg TDD) orally in combination with Epidiolex (CBD) 150 mg BID. The method, then:
The other pediatric patient was a patient, diagnosed with Lennox-Gastout in 2008, suffered from multiple seizure types and went through corpus callosotomy in January 2017 after failure of vagus nerve stimulation (VNS). […] The patient was first evaluated for cannabinoid treatment on Aug. 3, 2017, and was prescribed CBD with 0.3% THC 10 mg BID (Charlotte's Web). […] After discharge from the hospital, the patient's GTCs worsened and were no longer responsive to felbamate. […] This patient was 35.45 kg, so the CBD daily dose was 3.3 mg/kg (well below the therapeutic dosages for Epidiolex). However patient was still having frequent tonic, myoclonic, and GTC seizures per day. […] When the dose was 300 mg Epidiolex daily, the patient was 40.5 kg, so the CBD daily dose was 7.4 mg/kg (below the therapeutic dosages for Epidiolex for Lennox Gastaut Syndrome).

Test [2] relates to GTC seizures in human patient. The test can be described thus: Example 5 human patient, GTC seizures caused by cerebral angioma. The text has this: A patient first started having GTC seizures in 2007 which were caused by a cerebral angioma. […] The freedom from seizures allowed them to stop taking Lamictal, and the resolution of the medication side effects allowed them to return to work.

The subject of test [3] is GTC seizures in human patient. The test can be described thus: Example 7 human patient, intractable GTC seizures. The note with it: 10 mg THC with 10 mg CBD orally daily at bedtime, with Trileptal and clonazepam. The text has this:
A patient was first diagnosed with intractable GTC seizures without status epilepticus in 2001.
The patient first presented for cannabinoid treatment on May 24, 2013. They were then a PhD student in economics. The patient's medical history is significant for having a car accident with a concussion and “scarring”. They developed GTC seizures occurring 3 times per month. […] In 2008, they started using recreational cannabis occasionally, but not regularly.

For `CCCCCc1cc(O)c2c(c1)OC(C)(C)[C@@H]1CCC(C)=C[C@@H]21` [THC, Delta-9-tetrahydrocannabinol], the effect on seizures entry in test [1] is “further reduction in seizure frequency and duration”. Moreover, the seizure status entry in test [2] (only orally administered THC-infused confections and drinks) is “still seizure-free”; in test [2] (orally administered THC reduced from 150 milligrams to 70 mg at bedtime), “continued seizure freedom”. The seizures entry in test [3] is “no seizures since restarting cannabinoids”.
